In patent publication US4760072A, “Solid nedocromil sodium, useful for the removal of obstructed air pathways” (Fisons, plc, priority 1984, dated 1988):
Values joined by “and” are separate entries in the source; they are usually repeats but may differ in a detail not shown here. Equal entries are not always repeated. Structures can show the parent of a compound that is named as a salt.

Key:
[1] = Bound water / thermogravimetric analysis; assay type: physicochemical
Protocol: Form A material containing bound water can best be identified by thermogravimetric analysis in which the temperature of the material to be tested is increased at a constant rate and the change in weight of the sample is recorded against time.
(a) Two samples of about 5 mg of nedocromil sodium were submitted to thermogravimetric analysis at a scan rate of 20° C. per minute.

[2] = Powder X-ray diffraction, crystallinity; assay type: physicochemical
From the text: These peaks indicate that the material is crystalline.
In addition to the form A material there is a less desired form B which is of darker yellow colour, i.e. gives a yellow reading of 2.0 or more at 10% w/w total water using a Lovibond tintometer.

[3] = Physical stability of solid form B; assay type: physicochemical
[4] = Viscosity of precipitated crystal slurry; assay type: physicochemical; settings: 140 ml isopropanol at 15° C. added; cooled to 22° C. in 30 minutes
Protocol: Twenty grams of crude nedocromil sodium were mixed with 60 ml of deionised water and 180 ml of isopropyl alcohol in a 700 ml reaction flask. The mixture was agitated with an anchor-type agitator at 120 rpm and heated to boiling point at about 80° C. The solution was refluxed for 10 minutes and then cooled to 75° C. To it was then added a further 140 ml isopropanol at 15° C. […] The resulting slurry was then agitated as in Example 4 and cooled in an ice/salt/isopropanol bath to 22° C. in 30 minutes. […] This slurry was filtered, washed and dried as in Example 4.

[5] = Solid form produced by precipitation process; assay type: physicochemical
Protocol: Twenty grams of the nedocromil sodium were dissolved in 60 ml of deionised water and 180 ml of isopropyl alcohol by heating to reflux at 81° C. To this solution was then added a further 190 ml of isopropanol (temperature 25° C.) with agitation. The crystal slurry was then cooled in air, maintaining agitation, until a temperature of 25° C. had been reached. The crystals were then filtered on a Buchner filter, using a terylene filter cloth. The filter cake was washed with a displacement volume of isopropanol and filtered further. The cake was then dried in an oven, at atmospheric pressure and 60° C., to constant weight.
1 Kg of nedocromil sodium is dissolved in three liters of deionised water and six liters of isopropanol at 30° C., and the mixture is then heated to reflux (at 81° C.) with agitation to ensure dissolution. The resulting solution is cooled slightly to about 75° C. and then added to another 12.5 liters of isopropanol at a temperature of about -8° C., as quickly as possible. This precipitates out most of the nedocromil sodium and produces a slurry. This slurry is then stirred and cooled to 25° C. over about an hour, to precipitate out further material. The temperature of the slurry is kept at 25° C. and the slurry filtered as soon as possible to remove the mother liquor, and then dried to constant weight at 60° C. […]

[6] = Particle size analysis by Joyce-Loebl disc centrifuge; assay type: physicochemical; settings: four laboratory precipitations; Apex milled and micronised in a fluid energy mill
Protocol: By mass median diameter we mean the diameter such that half the particulate mass is in particles of lesser diameter and half in particles of greater diameter. The mass median diameter is essentially a Stokes diameter and may be determined using a Joyce Loebl sedimentation disc centrifuge either in a two layer or line start photometric mode (Bagness J and Ottaway A. Proc. Soc. Analyt. Chem. Part 4, Vol 9, 1972 pages 83-86).
Twenty grams of nedocromil sodium were mixed with 60 ml of de-ionised water and 180 ml isopropanol in a 700 ml reaction flask. The mixture was agitated with an anchor-type stirrer at 120 rpm, and heated to its boiling point at around 80° C. The flask was fitted with a water-cooled condenser to prevent escape of isopropanol vapour. The resulting solution was refluxed for about 10 minutes to ensure complete dissolution. The hot solution of nedocromil sodium was then cooled to 75° C. and then added in about 20 seconds to 190 ml of isopropanol at 8° C. The resulting slurry was stirred with the anchor agitator and cooled to 25° C. in the reaction flask. The time taken for cooling was about 45 minutes and throughout this time the crystal slurry remained as the pale yellow, free flowing form. The slurry was then filtered on a Buchner filter using terylene filter cloth, washed with about 50 ml isopropanol and dried in an oven at 60° C. to constant weight. […]

[7] = Aerosol dispersion with single stage liquid impinger; assay type: physicochemical
From the text: The single stage liquid impinger samples the whole cloud delivered from the aerosol and separates it into two fractions by inertial impaction. The fraction of smaller particle size is less than 10 microns in aerodynamic diameter and represents material which is likely to penetrate into the deeper regions of the human airways.
In four laboratory precipitations using this method particles of mass mean diameter 2.5, 2.5, 2.8 and 2.8 microns were produced, and these gave aerosol dispersions of 26% and 23% from a 50 microliter valve using the formulation described in Example 1. The dispersion was measured with a single stage liquid impinger.

[8] = 20° C.; cited from earlier work
[9] = Air classification of ground nedocromil sodium; assay type: physicochemical
From the text: It is further known to be desirable to make inhalation pharmaceuticals in the form of fine particles. These fine particles are conventionally made by grinding or milling larger sized particles of the pharmaceutical. Generally grinding and milling machines are extremely efficient and reduce the particle size of the material as far as they are capable in a single pass. Indeed the mass median diameter of product material can increase after a second pass through the grinder because some of the finest particles are lost to the system. We have also attempted to produce a material of very fine particle size by air classification of ground nedocromil sodium.

With `CCCc1c2oc(C(=O)O)cc(=O)c2cc2c(=O)cc(C(=O)O)n(CC)c12` [Form A] the “thermogravimetric trace (in words)” value [1] was “discontinuous”, the “removability of bound water on intensive drying” value ([1]; atmospheric pressure) was “cannot readily be removed by intensive drying at atmospheric pressure without destroying the compound” and the “crystallinity by powder X-ray diffraction” value [2] was “crystalline”.
With `CCCc1c2oc(C(=O)O)cc(=O)c2cc2c(=O)cc(C(=O)O)n(CC)c12` [Form B] the “bound water (in words)” value [1] was “no bound water”, the “thermogravimetric trace (in words)” value [1] was “essentially continuous trace” and the “crystallinity by powder X-ray diffraction” value [2] was “amorphous”. The “coalescence on change to form A” value [3] was “can coalesce to produce hard and intractable lumps of particle size larger than the original material” and the “spontaneous change to form A” value [3] was “can, but does not necessarily,change spontaneously (sometimes after a very considerable time) to form A”.
In the case of `CCCc1c2oc(C(=O)O)cc(=O)c2cc2c(=O)cc(C(=O)O)n(CC)c12` [Example 6], the “bound water (in words)” value [1] is reported as “no tightly bound water”, the viscosity of slurry [4] is reported as “about 20,000 centipoise” and the “form of nedocromil sodium produced” value [5] is reported as “form B”.
For `CCCc1c2oc(C(=O)O)cc(=O)c2cc2c(=O)cc(C(=O)O)n(CC)c12` [Example 4], the mass mean diameter [6] was 2.5 microns and 2.8 microns and the aerosol dispersion ([7]; 50 microliter valve, formulation described in Example 1) was 26% and 23%.
For `FC(F)(Cl)C(F)(F)Cl` [Propellant 114, 1,2-dichlorotetrafluoroethane], the “vapour pressure (absolute)” value [8] is listed as “about 180 k Pa”.
For `CCCc1c2oc(C(=O)O)cc(=O)c2cc2c(=O)cc(C(=O)O)n(CC)c12` [nedocromil sodium, disodium salt of 9-ethyl-6,9-dihydro-4,6-dioxo-10-propyl-4H-pyrano[3,2-g]-quinoline-2,8-dicarboxylic acid], the “dispersion of aerosol units, relative to larger mass median diameter” value ([7]; mass median diameter less than 4 microns vs exactly analogous units of larger mass median diameter) was “greater dispersion than exactly analogous units containing nedocromil sodium of larger mass median diameter” and the “mean particle size after air classification” value [9] was “larger mean particle size than the starting material”.
For `FC(F)(Cl)Cl` [Propellant 12, dichlorodifluoromethane], the “vapour pressure (absolute)” value [8] is given as “about 570 k Pa”.
